Experimental data: patent US20060211632A1, “PXR agonists for cardiovascular disease” (priority 2005, published 2006)

Tests used:
HDL-C = HDL-C in rats after 8 days of treatment; assay type: in vivo, rat
Description: (§1) Treatments were administered by gavage once daily in the morning for eight (8) days.
(§2) Whole blood was collected by cardiac puncture under CO2 anesthesia 8 hours following ethosuximide infusion. Animals were then sacrificed using CO2 and cervical dislocation. Livers were excised and used for analysis of erythromycin demethylase activity (as described in the Slama et al. reference) and hepatic apoA1 mRNA. Plasma was separated from whole blood anticoagulated with 5 mM EDTA at room temperature using a bench top centrifuge (5000 rpm) for 5 minutes. Plasma was stored unpreserved at −20° C. for up to 5 days, and subsequently analyzed for ethosuximide and for HDL-C. Concentrations of ethosuximide and HDL-C were measured in plasma by fluorescence polarization immunoassay (fpia) using a TDx analyzer (Abbott Laboratories, Irving, Tex.) and commercially available reagents (Abbott Laboratories, Abbott Park, Ill.).

serum ApoA1 [1] = experiment: Serum apoA1 in wild-type mice after 7 days of treatment (immuno-turbidimetric assay); assay type: in vivo, wild-type (WT; C57BL/6) mice; details: for apoA1 relative to controls (methylcellulose): gavage once daily 7 days, 100 mg/kg, gemfibrozil 20 mg/Kg, troglitazone 6 and 60 mg/Kg, Dunnett's procedure
Description: (§3) PXR-KO mice were treated with either rifampicin, gemfibrozil, or CDD 3540. In all cases methylcellulose was used as a vehicle control. These chemicals were administered, as a suspension in 1% methylcellulose (vehicle) by gavage using a 20 G—1½-inch feeding needle. The animals were treated in groups of three and for each treated group two mice were treated simultaneously with methylcellulose (vehicle). Each treatment was given once daily in the morning for seven days. The doses were 100 mg/kg for CTZ, rifampicin, CDD 3540, phenobarbital and TCPOBOP, 6 mg/kg and 60 mg/Kg for troglitazone and 0.175 mg/Kg and 1.75 mg/Kg for hyperforin, and for gemfibrozil 20 mg/Kg and 100 mg/Kg. The volume of vehicle used to suspend the treatment drugs and the dose of vehicle for control group was 7 ml/kg.
(§4) After the completion of the treatment (i.e. on day 8), blood samples were collected from the tail of the animals for serum HDL-C and ApoA1 determination. Blood samples were allowed to clot for 2 hours, centrifuged at 14,000 rpm for 20 minutes, and serum was collected. The serum samples were then stored at −20° C. for up to 24 hours before quantitative determination of HDL-C and ApoA1.
An immuno-turbidimetric assay was developed for quantitative determination of ApoA1 in mouse serum. Commercially available stock solution of purified mouse ApoA1 (79 mg/dl) was used to construct a standard curve. A potassium phosphate buffer solution was prepared by diluting 1 ml of monobasic 1.0 M potassium phosphate buffer to 10 ml with distilled water, and the pH of the solution was adjusted to 7.2 using 0.1 N NaOH. […] A dilution of 1:4000 of the stock concentration was used per the manufacturer's recommendation. The standard curve was prepared with 0, 39.5, 79, and 158 mg/dl of mouse apoA1. 1 μl of mouse plasma was mixed with 3 μl of distilled water for quantitation of apoA1. 500 μl of buffer solution was added to 4 μl of total sample volume prepared as described. After 5 minutes, 100 μl of antibody solution was added. The mixture was allowed to incubate at 37° C. for 3 minutes. Absorbance was measured at 580 nm using a Beckmann DU640 Spectrophotometer. Each sample or standard was analyzed twice, and the average of both readings was used. Serum ApoA1 concentrations from control mice were also compared with the normal ApoA1 levels in mice, obtained from the literature, to affirm the validity of the assay procedure.
Statistical treatments for HDL-C and apoA1 in mice were identical. For each of these variables, three basic analyses were performed, one for WT mice, one for PXR-KOs, and one for the two groups combined. Statistical analysis was performed in SAS (SAS Release 8, 1999, SAS Institute Inc., Cary, N.C.). In all cases the primary method of comparing treatments was ANOVA. Prior to performing this analysis, both variables were normalized by the geometric mean of their associated controls. Normality and homoscedasticity (constancy of variance across groups) were evaluated, with an appropriate data transformation (logarithmic) applied if necessary. These properties were checked before (to evaluate the need for transformation) and after transformation (to confirm the adequacy of the transformation) using normal probability plots and Levene's test for equality of variances (Snedecor et al., Statistical Methods, 8th Edition, Iowa State University Press, pp. 59-62 and 252-253, 1989). […]

hepatic apoA1 mRNA [2] = experiment: Time course of hepatic apoA1 mRNA in rats (Northern blot); assay type: in vivo, rat; details: 50 mg/Kg by gavage once daily, beginning after treatment day 2 and constant thereafter, p<0.05 vs vehicle controls
Description: Hepatic apoA1 mRNA was measured by Northern Blot hybridization to total hepatic RNA with oligonucleotides for apoprotein A1 and elongation factor-1α (EF-1α). The procedure was similar to that described in the Slama et al. reference for hepatic CYP3A mRNA. The following oligonucleotide sequence used for rat apoA1 mRNA was based on the nucleotide sequence for rat apoA1 described by Haddad et al. (“Linkage, evolution and expression of the rat apolipoprotein A-1, C-III, and A-IV genes,” J Biol Chem 1986; 261: 13268-13277): 3′ CTACGTCAGTTCCTGTCGCCGTCTCTGATACACAGGGTCAAACTTAGGAGGTGAAACCCG 5′.
[…] were dosed with CDD 3540 (50 mg/Kg) by gavage once daily for 8 days, and three rats were treated with methylcellulose (vehicle controls). Groups of three treated rats were sacrificed at 6 and 12 h after the first dose, 12 and 24 h after the second dose, and at 12 hours after doses 4-8, respectively. Hepatic apoA1 mRNA was quantitated by northern blot analysis as described above.
Temporal differences in hepatic apoA1 mRNA in rats were evaluated by a simple Analysis of Variance (ANOVA) and a Tukey's post-hoc test.

serum ApoA1 [3] = experiment: Serum apoA1 in PXR-KO mice after 7 days of treatment; assay type: in vivo; details: for apoA1 relative to control: gavage once daily 7 days, gemfibrozil 20 mg/kg, others 100 mg/kg
Description: as §3, §4
An immuno-turbidimetric assay was developed for quantitative determination of ApoA1 in mouse serum. Commercially available stock solution of purified mouse ApoA1 (79 mg/dl) was used to construct a standard curve. A potassium phosphate buffer solution was prepared by diluting 1 ml of monobasic 1.0 M potassium phosphate buffer to 10 ml with distilled water, and the pH of the solution was adjusted to 7.2 using 0.1 N NaOH. […] 1 μl of mouse plasma was mixed with 3 μl of distilled water for quantitation of apoA1. […] Absorbance was measured at 580 nm using a Beckmann DU640 Spectrophotometer. Each sample or standard was analyzed twice, and the average of both readings was used. […]
Statistical treatments for HDL-C and apoA1 in mice were identical. […] Normality and homoscedasticity (constancy of variance across groups) were evaluated, with an appropriate data transformation (logarithmic) applied if necessary. […]

CYP3A = CYP3A activity in rats (hepatic microsomal EDM activity, ethosuximide clearance); assay type: in vivo, rat
Description: as §1
Ethosuximide was prepared as a 3.5% (w/v) solution dissolved in normal saline. Ethosuximide was administered in a dose of 35 mg/kg via tail vein injection 24 hours following the eighth pretreatment dose.
as §2

serum HDL-C = experiment: Serum HDL-C in wild-type mice after 7 days of treatment; assay type: in vivo, wild-type (WT; C57BL/6) mice; details: for HDL-C relative to controls (methylcellulose): gavage once daily 7 days, 100 mg/kg, gemfibrozil 20 mg/kg, troglitazone 6 and 60 mg/Kg, Dunnett's procedure
Description: In all cases methylcellulose was used as a vehicle control. These chemicals were administered, as a suspension in 1% methylcellulose (vehicle) by gavage using a 20 G—1½-inch feeding needle. The animals were treated in groups of three and for each treated group two mice were treated simultaneously with methylcellulose (vehicle). Each treatment was given once daily in the morning for seven days. […] The volume of vehicle used to suspend the treatment drugs and the dose of vehicle for control group was 7 ml/kg. Doses were selected based on the results obtained from previous studies in rats except for troglitazone and hyperforin, for which doses were weight-adjusted using estimates of average daily human doses as reference. After the completion of the treatment (i.e. on day 8), blood samples were collected from the tail of the animals for serum HDL-C and ApoA1 determination. Blood samples were allowed to clot for 2 hours, centrifuged at 14,000 rpm for 20 minutes, and serum was collected. The serum samples were then stored at −20° C. for up to 24 hours before quantitative determination of HDL-C and ApoA1. HDL-C was determined quantitatively in the serum using Liquid Direct HDL kits. The kit contained reagent 1, reagent 2, and HDL calibrator. The assay consisted of two steps. […] The peroxide byproduct of this reaction is rendered non-colored via catalase reduction. […] In this second step, the catalase is inhibited, the remaining HDL cholesterol specifically reacts with cholesterol esterase and cholesterol oxidase, and in the presence of peroxidase the peroxide byproduct reacts with 4-aminoantipyrine and HDAOS to form a colored […] dye. Both these reactions were allowed to occur at 37° C. […] Each sample was analyzed twice, and the average of both readings was used. Statistical treatments for HDL-C and apoA1 in mice were identical. For each of these variables, three basic analyses were performed, one for WT mice, one for PXR-KOs, and one for the two groups combined. Statistical analysis was performed in SAS (SAS Release 8, 1999, SAS Institute Inc., Cary, N.C.). In all cases the primary method of comparing treatments was ANOVA. Prior to performing this analysis, both variables were normalized by the geometric mean of their associated controls. Normality and homoscedasticity (constancy of variance across groups) were evaluated, with an appropriate data transformation (logarithmic) applied if necessary. These properties were checked before (to evaluate the need for transformation) and after transformation (to confirm the adequacy of the transformation) using normal probability plots and Levene's test for equality of variances (Snedecor et al., Statistical Methods, 8th Edition, Iowa State University Press, pp. 59-62 and 252-253, 1989). […]

hepatic apoA1 mRNA [4] = experiment: Hepatic apoA1 mRNA in rats after 8 days of treatment; assay type: in vivo, rat
Description: as §2, with “Treatments were administered by gavage once daily in the morning for eight (8) days. Whole” for “Whole”, “-20°” for “−20°”, “Ill.). […] Hepatic apoA1 mRNA was measured by Northern Blot hybridization to total hepatic RNA with oligonucleotides for apoprotein A1 and elongation factor-1α (EF-1α). The procedure was similar to that described in the Slama et al. reference for hepatic CYP3A mRNA. […]” for “Ill.).”

Structure (SMILES)	HDL-C (HDL-C)	increase in apoA1 relative to controls (serum ApoA1 [1]; 100 mg/kg once daily 7 days) [fold]	apoA1 relative to controls (methylcellulose) (serum ApoA1 [1])	increase in hepatic apoA1 (hepatic apoA1 mRNA [2]) [%]	apoA1 relative to control (serum ApoA1 [3])	CYP3A activity (CYP3A)	HDL-C relative to controls (methylcellulose) (serum HDL-C)	apoA1 (hepatic apoA1 mRNA [4])	increase in HDL-C (serum HDL-C; 100 mg/Kg once daily 7 days)	dose at peak of the dose-response curve (serum ApoA1 [1]; apoA1 and HDL-C, declined with higher doses) [mg/kg]	increase in apoA1 relative to control (serum ApoA1 [3]; gemfibrozil 20 mg/kg once daily 7 days) [fold]
Fc1ccc(C(c2ccc(F)cc2)(c2ccc(F)cc2)n2ccnc2)cc1 [CDD 3540]	increase	~3.7	significantly elevated	~45	neither rifampin nor CDD 3540 elicited significant changes	increase	significantly elevated	increase	–	–	–
CO[C@H]1/C=C/O[C@@]2(C)Oc3c(C)c(O)c4c(O)c(c(/C=N/N5CCN(C)CC5)c(O)c4c3C2=O)NC(=O)/C(C)=C\C=C\[C@H](C)[C@H](O)[C@@H](C)[C@@H](O)[C@@H](C)[C@H](OC(C)=O)[C@@H]1C [rifampin, rifampicin]	–	–	–	–	–	–	–	–	about 25%	–	–
Cc1ccc(C)c(OCCCC(C)(C)C(=O)O)c1 [gemfibrozil]	–	–	significantly elevated	–	significantly increase	–	significantly elevated	–	–	20	~1.7
Clc1cnc(Oc2ccc(Oc3ncc(Cl)cc3Cl)cc2)c(Cl)c1 [TCPOBOP, 1,4-bis[2-(3,5-dichloropyridyloxy)]benzene]	–	–	did not significantly elevate	–	–	–	did not significantly elevate	–	–	–	–
